Values joined by “and” are separate entries in the source; they are usually repeats but may differ in a detail not shown here. Equal entries are not always repeated. Where two headings read alike, the source gives them in different places.
What was measured:
[1] = tested on: arachidonic acid cyclooxygenase oxidation product PGE2; assay: inhibition of PGE2 synthesis by rat polymorphonuclear leukocytes; type: cell-based, rat (Wistar); conditions: read-out: 50% Inhibitory Concentration (IC50), PGE2
Description: (§1) Peritoneal PMN are obtained from female Wistar rats (150-250 g) that received an i.p. injection of 6% glycogen (10 ml). After 24 hours, rats are killed by CO2 asphyxiation and peritoneal cells are harvested by peritoneal lavage using Ca^++ and Mg^++ free Hanks' balanced salt solution (HBSS). The peritoneal exudate is centrifuged at 400 g for 10 minutes. After centrifugation, the lavaged fluid is removed and the cell pellet is resuspended in HBSS containing Ca^++ and Mg^++ and 10 mM L-cysteine at a concentration of 2×10^7 cells/ml. To 1 ml portions of cell suspension, test drugs or vehicle are added and incubated at 37° C. for 10 minutes. Following this preincubation, the calcium ionophore (10 μM), A23187, is added together with 0.5 μCi [^14 C] arachidonic acid and further incubated for 10 minutes. The reaction is stopped by the addition of ice cold water (3 ml) and acidifying to pH 3.5. Lipoxygenase products are then extracted twice into diethyl ether. The pooled ether extracts are evaporated to dryness under nitrogen and the residue is redissolved in a small volume of methanol and spotted on aluminum backed pre-coated thin layer chromatographic plates. The samples are then co-chromatographed with authentic reference 5-HETE, in the solvent system--hexane:ether:acetic acid (50:50:3). After chromatography, the areas associated with 5-HETE standard are identified by autoradiography, cut out and quantitated by liquid scintillation.
(§2) Results are expressed as % inhibition of [^14 C]5-HETE synthesis. [formula]
However, in order to determine cyclooxygenase activity, the samples are cochromatographed with authentic reference PGE2 in the solvent system ethyl acetate:formic acid (80:1) and the upper phase of ethyl acetate:isoctane:acetic acid:water (110:50:20:100). After chromatography, the areas associated with PGE2 standard are identified by autoradiography, cut out and quantitated by liquid scintillation techniques.

[2] = tested on: TPA-induced mouse ear edema; assay: 12-O-tetradecanoylphorbol acetate (TPA)-induced murine ear edema test; type: in vivo, mouse (Swiss Webster); conditions: for % Change from Control, TPA ear edema: * p ≤ 0.05; for ED50: Mus musculus, 4 h
Excerpt: (§3) The ability of the compounds of the invention to inhibit the lipoxygenase and cyclooxygenase pathways of arachidonic acid is examined in the in vivo arachidonic acid (AA)-/12-O-tetradecanoylphorbol acetate (TPA)-induced murine ear edema test.
(§4) According to this test, Swiss Webster female mice (Buckshire), approximately 8 weeks old, are placed into plastic boxes in groups of six. Eight groups of mice receive AA topically on the right ear, and another 8 groups receive TPA topically on the right ear. AA and TPA are dissolved in acetone at concentrations of 100 mg/ml and 100 μg/ml respectively. The phlogistics are applied to the right ear by the means of an automatic pipet. Volumes of 10 μl are applied to the inner and outer surfaces of the ear. Each mouse receives either 2 mg/ear AA or 4 μg/ear TPA. The left ear (control) receives acetone delivered in the same manner. Oral and topical dosing regimens are as follows: (1) drugs are given 30 minutes prior to AA treatment, and (2) drugs are given 30 minutes after treatment with TPA.
(§5) Measurements are taken with Oditest calipers, 0-10 mm with 0.01 graduations. The right and left ears are measured after 1 hour AA-induced inflammation and 4 hours after TPA-induced inflammation.
(§6) The difference between right and left ear thickness is calculated and the significance is determined by a one way analysis of variance with Dunnett's comparisons to control (P=0.05). Drug effects are expressed as a percent change from control values: [formula]

[3] = tested on: arachidonic acid lipoxygenase oxidation product 5-HETE; assay: inhibition of 5-HETE synthesis by rat glycogen-elicited polymorphonuclear leukocytes; type: cell-based, rat (Wistar); conditions: Leukocyte, read-out: 50% Inhibitory Concentration of (IC50) 5-HETE
Description: The assay of this Example measures the ability of the compounds of the invention to inhibit the synthesis of 5-HETE by rat glycogen-elicited polymorphonuclear leukocytes.
The assay is carried out as follows:
as §1, §2

[4] = tested on: acute inflammatory response (carrageenan rat paw edema); assay: carrageenan rat paw edema test; type: in vivo, rat (Sprague-Dawley); conditions: for % Inhibition of paw edema: 200 mg/kg perorally, 3 h reading; for profile of activity in carrageenan rat paw edema test: in vivo; for ED50: Rattus norvegicus, po, 3 h, read-out: ED50, paw edema
Description: In this test, male Sprague-Dawley (Charles River) rats weighing 140-180 gm, in groups of 6 animals, are injected subcutaneously in the right paw with 0.1 ml of 1% carrageenan at zero time. Mercury plethysmographic readings (ml) of the paw are made at zero time and 3 hours later. Drugs are suspended or dissolved in 0.5% methylcellulose and given perorally one hour prior to carrageenan. The increase in paw volume (edema in ml) produced by the inflammatory agent, carrageenan, is measured.
Unpaired Student's t-test is used to determine statistical significance.

[5] = tested on: AA-induced mouse ear edema; assay: arachidonic acid (AA)-induced murine ear edema test; type: in vivo, mouse (Swiss Webster); conditions: for % Change from Control, AA ear edema: * p ≤ 0.05; for ED50: Mus musculus, 1 h
Excerpt: as §3, §4, §5, §6

[6] = tested on: phenylbenzoquinone-induced writhing; assay: phenylbenzoquinone-induced writhing test; type: in vivo, mouse (CF-1)
Description: In this procedure, test compound or vehicle is administered at various doses to ten male CF-1 mice, weighing 20-25 g, per dose level. The animals then receive intraperitoneal injection with 0.25 ml of the writhing agonist (a 0.02% solution of benzoquinone) 5 minutes before the beginning of a pre-selected, 10-minute observation period. Typical observation periods include 10 to 20, 25 to 35, 40 to 50 and 55 to 65 minutes following administration of the test compound. The mice are observed during the observation period and the total numbers of writhes are determined for each mouse.

[7] = tested on: urate-induced canine synovitis; assay: urate-induced canine synovitis test; type: in vivo, dog (mongrel); conditions: Canis lupus familiaris, read-out: Oral ED50
Description: In this procedure, healthy mongrel dog of either sex weighing between 14-20 kg are adapted to a measuring platform. […] A Hewlett Packard 75C computer then converts voltage into kilogram units (mean pressure reading for 1 minute). This control pressure represents the 100% value in this procedure. Synovitis is induced by injecting 5 mg of sodium urate crystals (5-15μ in length) in 1 ml of 0.9% saline solution into the synovial space of the right or left knee. Readings are taken at 1, 2, 2.5, 3, 3.5, 4, 4.5 and 5 hours after urate administration and calculated as a percentage of control hind paw pressure. […] Dogs are used only once in these experiments to prevent tolerance.
Each dog is placed on the pressure measuring apparatus with its left or right hind paw centered above the load cell, and pressure readings are recorded for one minute. Two or three control readings are averaged and represent control paw pressure. Single pressure readings are taken after sodium urate injection.
Drug effects are expressed as a percentage of control paw pressure which is calculated as follows:
Test reading/Control reading×100
Test reading=Pressure measurement after sodium urate injection and drug or no drug (blank capsule).
Control reading=Mean pressure measurement before sodium urate injection.
A one-way analysis of variance with Dunnett's comparisons to control (α=0.05 and 0.01) was used to determine statistical significance.

[8] = tested on: cyclooxygenase; conditions: background statement; cited from earlier work
[9] = tested on: lipoxygenase; conditions: background statement; cited from earlier work
[10] = Leukocyte, rat PMN, A23187 10 μM, [14C] arachidonic acid
[11] = rat PMN, A23187 10 μM, [14C] arachidonic acid
[12] = 200 mg/kg; Control = 15.5; * p ≤ 0.05
[13] = perorally, 1 h prior to carrageenan

O=C(O)C(O)N1C(=O)CCN1c1ccc(Cl)cc1 (stereo not drawn) [Example 5, 2-(4-Chlorophenyl)-α-hydroxy-5-oxo-1-pyrazolidine acetic acid]
IC50 [1, 10]: 140 µM
% Change from Control, TPA ear edema ([2]; oral, 50 mg/kg, 4 h after TPA): -8%
IC50 [3, 11]: 2 to 3 µM
% Inhibition of paw edema ([4]; 1 h prior to carrageenan): 30%
% Change from Control, AA ear edema ([5]; oral, 50 mg/kg, 1 h after AA): -22%

O=C(O)C(O)N1C(=O)CCN1c1cccc([N+](=O)[O-])c1 (stereo not drawn) [Example 6, α-Hydroxy-5-oxo-2-(3-nitrophenyl)-1-pyrazolidine acetic acid]
% Change from Control, TPA ear edema ([2]; oral, 100 mg/kg, 4 h after TPA): -23%
IC50 [3, 11]: < 50 µM
% Change from Control, AA ear edema ([5]; oral, 100 mg/kg, 1 h after AA): +4%

O=C(O)C(O)N1C(=O)CCN1c1cccc(F)c1 (stereo not drawn) [Example 4, 2-(3-Fluorophenyl)-α-hydroxy-5-oxo-1-pyrazolidine acetic acid]
% Change from Control, TPA ear edema ([2]; oral, 50 mg/kg, 4 h after TPA): 0%
% Change from Control, TPA ear edema ([2]; oral, 100 mg/kg, 4 h after TPA): -27%
% Change from Control, TPA ear edema ([2]; topical, 0.1 mg/ear): -10%
% Change from Control, TPA ear edema ([2]; topical, 0.33 mg/ear): -23%
% Change from Control, TPA ear edema ([2]; topical, 1.0 mg/ear): -45%
IC50 [3, 11]: 5 to 13 µM
% Inhibition of paw edema ([4]; 1 h prior to carrageenan): 44%
profile of activity in carrageenan rat paw edema test [4]: a profile of activity similar to that of phenidone
% Change from Control, AA ear edema ([5]; oral, 100 mg/kg, 1 h after AA): -11%
% Change from Control, AA ear edema ([5]; topical, 0.1 mg/ear): -27%
% Change from Control, AA ear edema ([5]; topical, 0.33 mg/ear): -38%
% Change from Control, AA ear edema ([5]; topical, 1.0 mg/ear): -63%
Mean No. of Writhes ([6]; 100 mg/kg; Control = 4.5): 3.8
Mean No. of Writhes [6, 12]: 1.7

COc1ccc2c(c1)c(CC(=O)O)c(C)n2C(=O)c1ccc(Cl)cc1 [indomethacin, reference compound]
ED50 ([7]; po, 2 h): 0.3 mg/kg
activity in TPA ear edema ([2]; oral, 10 mg/kg): NA(10)
ED50, TPA ear edema ([2]; topical): 0.08 mg/ear
ED50 [4]: 5.6 mg/kg
activity in AA ear edema ([5]; oral, 10 mg/kg): NA(10)
ED50, AA ear edema ([5]; topical): 0.1 mg/ear
ED50 ([6]; Mus musculus, read-out: ED50, writhing): 10 mg/kg

CC(=O)Oc1ccccc1C(=O)O [aspirin, reference compound]
Mean No. of Writhes [6, 12]: 6.6

O=C1CCN(c2ccccc2)N1 [phenidone, 1-phenyl-3-pyrazolidone, reference compound]
IC50 [1, 10]: > 100 µM
ED50 ([7]; oral, 2 h after urate): 4.3 mg/kg
inhibition of cyclooxygenase activity [8]: inhibitors of both cyclooxygenase and lipoxygenase activity
ED50 ([2]; oral): 235 mg/kg
ED50, TPA ear edema ([2]; topical): 0.6 mg/ear
inhibition of lipoxygenase activity [9]: inhibitors of both cyclooxygenase and lipoxygenase activity
IC50 [3, 11]: 12 µM
ED50 [4, 13]: 196 mg/kg
ED50 ([5]; oral): 84 mg/kg
ED50, AA ear edema ([5]; topical): 0.1 mg/ear
Mean No. of Writhes ([6]; 200 mg/kg; Control = 4.0): 2.2

O=C(O)C(O)N1C(=O)CCN1c1cccc(C(F)(F)F)c1 (stereo not drawn) [Example 1, α-Hydroxy-5-oxo-2-[3-(trifluoromethyl)phenyl]-1-pyrazolidine acetic acid]
IC50 [1, 11]: < 50 µM
% Change from Control, AA ear edema ([5]; topical, 1.0 mg/ear): -83% and -74%

O=C(O)C(O)N1C(=O)CCN1c1ccccc1 (stereo not drawn) [Example 2, α-Hydroxy-5-oxo-2-phenyl-1-pyrazolidine acetic acid]
ED50 ([7]; oral, 2 h after urate): 5 mg/kg
% Change from Control, TPA ear edema ([2]; oral, 100 mg/kg, 4 h after TPA): -8%
% Change from Control, TPA ear edema ([2]; topical, 0.1 mg/ear): -12%
% Change from Control, TPA ear edema ([2]; topical, 0.33 mg/ear): -31%
% Change from Control, TPA ear edema ([2]; topical, 1.0 mg/ear): -23%
IC50 [3, 11]: 3 to 5 µM
% Inhibition of paw edema ([4]; 1 h prior to carrageenan): 46%
profile of activity in carrageenan rat paw edema test [4]: a profile of activity similar to that of phenidone
% Change from Control, AA ear edema ([5]; oral, 100 mg/kg, 1 h after AA): -30%
% Change from Control, AA ear edema ([5]; topical, 0.1 mg/ear): -21%
% Change from Control, AA ear edema ([5]; topical, 0.33 mg/ear): -26%
% Change from Control, AA ear edema ([5]; topical, 1.0 mg/ear): -54%
Mean No. of Writhes ([6]; 100 mg/kg; Control = 5.1): 3.5
Mean No. of Writhes ([6]; 133 mg/kg; Control = 15.5; * p ≤ 0.05): 3.2

O=C(O)C(O)N1C(=O)CCN1c1cccc(Cl)c1 (stereo not drawn) [Example 3, 2-(m-Chlorophenyl)-α-hydroxy-5-oxo-1-pyrazolidine acetic acid]
IC50 [1, 10]: 110 µM
% Change from Control, TPA ear edema ([2]; oral, 50 mg/kg, 4 h after TPA): -8%
IC50 [3, 11]: 2 to 5 µM
% Inhibition of paw edema ([4]; 1 h prior to carrageenan): 29%
% Change from Control, AA ear edema ([5]; oral, 50 mg/kg, 1 h after AA): -5%

NC1=NN(c2cccc(C(F)(F)F)c2)CC1 [BW755C, 3-amino-1-[m-(trifluoromethyl)phenyl]-2-pyrazoline, reference compound]
IC50 ([1]; Rattus norvegicus, Leukocyte): 25 µM
ED50 ([7]; oral, 2 h after urate): 1.5 mg/kg
inhibition of cyclooxygenase activity [8]: inhibitors of both cyclooxygenase and lipoxygenase activity
ED50 ([2]; oral): 88 mg/kg
inhibition of lipoxygenase activity [9]: inhibitors of both cyclooxygenase and lipoxygenase activity
IC50 ([3]; Rattus norvegicus): 43 µM
ED50 [4, 13]: 72 mg/kg
ED50 ([5]; oral): 65 mg/kg
ED50 ([6]; Mus musculus; read-out: ED50, writhing): 100 mg/kg
